Measurements published in publication PMC9692855, “Amaryllidaceae Alkaloids from Clivia miniata (Lindl.) Bosse (Amaryllidaceae): Isolation, Structural Elucidation, and Biological Activity” (Plants, 2022).
Read-outs that look alike come from different tables or passages of the source.

Assays:
[1] = biological target: human plasma BuChE (E.C. 3.1.1.8) (Homo sapiens, UniProt P06276); assay: biochemical; settings: for inhibition at 100 µM: read-out: % Inhibition hBuChE ± SEM
[2] = biological target: human recombinant AChE (E.C. 3.1.1.7) (Homo sapiens, UniProt P22303); assay: biochemical; settings: for inhibition at 100 µM: read-out: % Inhibition hAChE ± SEM
[3] = mean ± SEM of three independent measurements, each in triplicate, read-out: IC50 hBuChE ± SEM
[4] = tested at 100 µM compound concentration
[5] = mean ± SEM of three independent measurements, each in triplicate, read-out: IC50 hAChE ± SEM

human plasma BuChE (E.C. 3.1.1.8), sequence (P06276 29-602): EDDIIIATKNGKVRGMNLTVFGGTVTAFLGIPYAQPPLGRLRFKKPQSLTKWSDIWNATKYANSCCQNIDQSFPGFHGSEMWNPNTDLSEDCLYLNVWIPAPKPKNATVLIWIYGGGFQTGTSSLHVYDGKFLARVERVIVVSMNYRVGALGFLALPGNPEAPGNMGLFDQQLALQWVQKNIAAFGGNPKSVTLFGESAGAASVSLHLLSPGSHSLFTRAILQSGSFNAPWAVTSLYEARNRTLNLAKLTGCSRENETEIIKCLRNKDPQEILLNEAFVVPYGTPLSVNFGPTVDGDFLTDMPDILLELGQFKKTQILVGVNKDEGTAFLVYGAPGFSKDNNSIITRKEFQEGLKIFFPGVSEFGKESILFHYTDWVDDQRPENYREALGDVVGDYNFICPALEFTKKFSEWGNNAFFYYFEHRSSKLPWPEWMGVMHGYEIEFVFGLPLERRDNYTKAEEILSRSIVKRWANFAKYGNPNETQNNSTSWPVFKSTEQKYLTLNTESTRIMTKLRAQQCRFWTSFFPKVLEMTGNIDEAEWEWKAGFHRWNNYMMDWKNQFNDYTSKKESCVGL
human recombinant AChE (E.C. 3.1.1.7), sequence (P22303 32-614): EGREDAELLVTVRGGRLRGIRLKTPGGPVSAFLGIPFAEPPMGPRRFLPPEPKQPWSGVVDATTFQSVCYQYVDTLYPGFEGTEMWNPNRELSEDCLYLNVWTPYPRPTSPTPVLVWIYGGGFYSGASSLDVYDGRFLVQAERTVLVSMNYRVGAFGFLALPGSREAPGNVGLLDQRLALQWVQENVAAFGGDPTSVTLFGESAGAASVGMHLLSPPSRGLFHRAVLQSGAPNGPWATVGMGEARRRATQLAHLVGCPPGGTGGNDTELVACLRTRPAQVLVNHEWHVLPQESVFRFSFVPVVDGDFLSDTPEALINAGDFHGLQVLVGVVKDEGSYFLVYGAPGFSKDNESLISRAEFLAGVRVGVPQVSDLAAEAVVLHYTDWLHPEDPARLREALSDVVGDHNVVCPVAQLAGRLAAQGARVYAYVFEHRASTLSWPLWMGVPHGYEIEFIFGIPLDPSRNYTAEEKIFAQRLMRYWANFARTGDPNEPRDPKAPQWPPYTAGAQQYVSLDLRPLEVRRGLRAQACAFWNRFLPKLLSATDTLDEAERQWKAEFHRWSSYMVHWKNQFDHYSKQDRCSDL

| SMILES | IC50 [1] | inhibition at 100 µM [1] | IC50 [2] | inhibition at 100 µM [2] | IC50 [1, 3] | inhibition at 100 µM [1, 4] | IC50 [2, 5] | inhibition at 100 µM [2, 4] | IC50 ([2]; read-out: IC50 hAChE ± SEM) |
| --- | --- | --- | --- | --- | --- | --- | --- | --- | --- |
| COc1cc2c(cc1O)CN1CCC23C=CC(OC(C)=O)CC13 (centres unmarked) [3-O-acetyl-8-O-demethylmaritidine (12), 3-O-acetyl-8-O-demethylmaritidine] | > 100 µM | 10.3 ± 2.06% | > 100 µM | 12.3 ± 1.29% | – | – | – | – | – |
| COC(=O)c1cc(C(=O)O[C@H]2C[C@H]3CCN(C)[C@H]3[C@@H]3c4cc5c(cc4C(=O)O[C@H]32)OCO5)c(C)nc1C [cliniatine C (4), cliniatine C] | – | – | – | – | > 100 µM | 9.43 ± 1.23% | > 100 µM | 5.72 ± 0.53% | – |
| Cc1nc(C)c(C(=O)O[C@H]2C[C@H]3CCN(C)[C@H]3[C@@H]3c4cc5c(cc4C(=O)O[C@H]32)OCO5)cc1C(=O)O[C@H]1C[C@H]2CCN(C)[C@H]2[C@@H]2c3cc4c(cc3C(=O)O[C@H]21)OCO4 [clivimine (2), clivimine] | – | – | – | – | > 100 µM | 15.2 ± 8.23% | > 100 µM | 9.62 ± 1.75% | – |
| Cc1nc(C)c(C(=O)OC2CC3CCN(C)C3C3c4cc5c(cc4C(=O)OC23)OCO5)cc1C(=O)OC1CC2CCN(C)C2c2c1oc(=O)c1cc3c(cc21)OCO3 (centres unmarked) [clivimine B (3), clivimine B] | – | – | – | – | > 100 µM | 7.69 ± 2.56% | > 100 µM | 10.1 ± 5.37% | – |
| CN1CC[C@@H]2C[C@H](O)[C@@H]3OC(=O)c4cc5c(cc4[C@H]3[C@@H]21)OCO5 [clivonine (6), clivonine] | > 100 µM | 28.2 ± 6.63% | > 100 µM | 34.4 ± 1.68% | – | – | – | – | – |
| COc1ccc2c3c1O[C@H]1C[C@@H](O)C=C[C@@]31CCN(C)C2 [galanthamine, reference compound] | – | 68.2 ± 1.24% | – | – | – | – | – | – | – |
| CC(O)CC(=O)O[C@H]1C[C@H]2CCN(C)[C@H]2[C@@H]2c3cc4c(cc3C(=O)O[C@H]21)OCO4 (some centres unmarked) [nobilisitine B (14), nobilisitine B] | – | – | – | – | > 100 µM | 12.6 ± 0.53% | > 100 µM | 40 ± 1.13% | – |
| COc1cc2c(cc1O)C(=O)N1CCC3=C[C@H](O)[C@@H](OC(C)=O)[C@@H]2[C@@H]31 [sternbergine (17), sternbergine] | – | 23.5 ± 2.28% | – | 1.25 ± 0.23% | > 100 µM | – | – | – | > 100 µM |
